Source: patent publication US20100285540A1, “Process for the preparation of (R)-Beta-Arylalanines by coupled Racemase/Aminomutase catalysis” (Board of Trustees of Michigan State University, priority 2009, published 2010)
Like-named read-outs stand apart in the source and are kept apart here.

Experiments:
[1] = target: T1, amino acid racemase from Pseudomonas putida (KT2440) (Pseudomonas putida, UniProt Q88GJ9); assay: Racemization of α-arylalanines by amino acid racemase; type: biochemical
T1 construct: His6 (N); made in house; host or cells: E. coli BL21(DE3)
T1 sequence (Q88GJ9 25-409): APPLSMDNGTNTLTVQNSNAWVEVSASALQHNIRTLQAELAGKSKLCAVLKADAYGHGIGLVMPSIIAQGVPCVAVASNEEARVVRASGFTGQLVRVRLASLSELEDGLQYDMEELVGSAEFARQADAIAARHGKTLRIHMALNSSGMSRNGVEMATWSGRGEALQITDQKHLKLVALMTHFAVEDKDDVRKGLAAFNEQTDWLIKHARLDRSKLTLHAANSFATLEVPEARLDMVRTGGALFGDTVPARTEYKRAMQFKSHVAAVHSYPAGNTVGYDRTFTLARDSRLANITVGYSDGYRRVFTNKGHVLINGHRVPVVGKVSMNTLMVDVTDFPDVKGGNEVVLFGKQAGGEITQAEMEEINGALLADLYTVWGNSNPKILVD
Protocol: Assessing the Racemization Rate of α-Arylalanines by the Amino Acid Racemase. The partially purified (>90%) amino acid racemase (200 μg/mL) was added to 2.5 mL of 50 mM phosphate buffer (pH 8.0) containing 5% (v/v) glycerol and one different (S)-α-arylalanine (1.5 mM) in separate assays; the mixtures were incubated at 31° C. An aliquot was withdrawn from each reaction at five time points (0.5, 10, 30, 60, and 360 min). A similar time course experiment was conducted with (R)-α-phenylalanine.
Cofactor Dependency of the Amino Acid Racemase. To assess whether sufficient PLP, made by the E. coli BL21(DE3) expression host, remained bound to the functional PLP-dependent racemase for the duration of the assay, partially purified enzyme (400 μg) was added to each of two 2-mL assays that contained (S)-α-phenylalanine (1.5 mM). To one assay, exogenous PLP (50 μM) was added, and to the other, no cofactor was added. After 6 h, the contents of the reaction vial without PLP added were divided into two fractions […]; to one fraction was added PLP (50 μM), and the other fraction remained unchanged. Additional (S)-α-phenylalanine was added to a final concentration of 1.5 mM in all three assays, and incubated for 14 h.
Evaluation of the Effect of (R)-β-Phenylalanine on Racemase Activity. The partially purified amino acid racemase (400 μg) in 50 mM phosphate (2 mL, pH 8.0) containing 5% (v/v) glycerol buffer and (S)-α-phenylalanine (0.75 mM) was incubated in separate assays with or without (R)-β-phenylalanine (0.75 mM) added. Aliquots (0.5 mL) of each reaction mixture were withdrawn from each assay at three time points (30, 60 and 360 min). The amino acids in each fraction were derivatized and analyzed by chiral GC/EI-MS as described previously. The mol % of (S)-α-, (R)-α-arylalanine, and (R)-β-arylalanine in each sample were assessed by comparing the abundance of the diagnostic base peak fragment ion (m/z) derived by GC/EI-MS fragmentation for each of the corresponding analytes.

[2] = tested on: previously reported racemase; details: naturally occurring aromatic amino acids; cited from earlier work
[3] = tested on: amino acid racemase and PAM; assay: Coupled enzyme reaction (racemase + PAM, DKR conditions); type: biochemical; details: 0.4 mM racemic α-arylalanine, 200 μg/mL racemase, 100 μg/mL PAM, 20 h
Protocol: Coupled Enzyme Reaction. The coupled enzyme reaction mixture incubated at 31° C. contained partially purified amino acid racemase (200 μg) and PAM (100 μg) in 1 mL of 50 mM phosphate buffer (pH 8.0) containing 5% (v/v) glycerol. Each of the aryl α-amino acids (0.4 mM) were individually added to a separate assay tube containing the coupled enzyme mixture. After 20 h, the reactions were terminated by basification to pH 10-12 (with 0.5 N NaOH solution) and the amino acids were derivatized for quantification by chiral GC/EI-MS analysis as described previously.

[4] = target: T2, phenylalanine aminomutase (PAM) (Taxus canadensis, UniProt Q6GZ04); assay: Equilibration of α- and β-arylalanines by PAM; type: biochemical; parameters: His6 (N); made in house; host or cells: E. coli BL21(DE3); details: 100 μg PAM, 31° C.; for β-product to α-substrate ratio: after 20 h, 0.4 mM substrate
T2 sequence (Q6GZ04 1-698): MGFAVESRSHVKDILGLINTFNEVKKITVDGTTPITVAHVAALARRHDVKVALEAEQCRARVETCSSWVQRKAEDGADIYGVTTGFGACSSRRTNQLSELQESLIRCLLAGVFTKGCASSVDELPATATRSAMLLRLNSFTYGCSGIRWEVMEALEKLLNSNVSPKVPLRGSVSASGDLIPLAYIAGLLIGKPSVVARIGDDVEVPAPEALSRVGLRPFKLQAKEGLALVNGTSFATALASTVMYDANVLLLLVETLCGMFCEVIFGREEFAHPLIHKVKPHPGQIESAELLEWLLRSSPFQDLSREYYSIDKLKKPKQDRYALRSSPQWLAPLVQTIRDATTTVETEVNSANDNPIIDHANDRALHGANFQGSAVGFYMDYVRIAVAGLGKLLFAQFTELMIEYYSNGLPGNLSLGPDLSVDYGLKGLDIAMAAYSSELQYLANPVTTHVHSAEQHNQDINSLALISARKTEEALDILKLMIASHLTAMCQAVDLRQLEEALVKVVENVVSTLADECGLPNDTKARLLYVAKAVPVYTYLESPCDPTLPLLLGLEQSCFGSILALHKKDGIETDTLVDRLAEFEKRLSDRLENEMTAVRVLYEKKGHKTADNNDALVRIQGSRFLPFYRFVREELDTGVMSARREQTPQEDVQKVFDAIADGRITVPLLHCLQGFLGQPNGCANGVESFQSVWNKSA
Protocol: Assessing the Equilibration Rate of α- and β-Arylalanines by PAM. […] An aliquot was withdrawn from each reaction at five time points (0, 3, 6, 9 and 20 h). The ratio of (R)-β-arylalanine to (S)-α-arylalanine in each aliquot was calculated by GC/EI-MS fragmentation analysis and the abundances of the base peak fragment ions of the amino acid derivatives were compared as described earlier. The relative amount of each α-arylalanine and β-arylalanine at equilibrium was determined by linear regression analysis of the area of the base peak ion of the derivatized α- and β-arylalanines generated in the EI-MS. The peak area was converted to concentration of product (or substrate) by solving the corresponding linear equation, derived by plotting the area of the base peak ion (produced by the corresponding authentic standard in the mass spectrometer) against concentration ranging from 0 to 1.5 mM.

[5] = target: T2, phenylalanine aminomutase (PAM); parameters: His6 (N); made in house; host or cells: E. coli BL21(DE3); details: enantiopure (S)-α-phenylalanine, 10 μg/mL enzyme, 10 μM substrate, same temperature; cited from earlier work
[6] = target: T2, phenylalanine aminomutase (PAM); assay: Effect of (R)-α-phenylalanine on PAM activity (kinetic constants)
Protocol: Evaluation of the Effect of (R)-α-Phenylalanine on PAM Activity. Phenylalanine aminomutase (100 μg/mL) was added to 50 mM phosphate buffer (pH 8.0) containing 5% (v/v) glycerol at 31° C. containing either (S)-α-phenylalanine or (R)-β-phenylalanine at a range of concentrations (0.05, 0.10, 0.20, 0.40, 0.75, 1.5, and 3 mM). The reactions were incubated at 31° C. for 90 min under steady state conditions. Identical series of assays were run in parallel for the (S)-α- or (R)-β-phenylalanine as substrates, except 0.2 mM and 0.75 mM of (R)-α-phenylalanine were added separately to each series. Double reciprocal plots of velocity (vo) and concentration were constructed for the forward and reverse PAM reaction data sets. The equation of the best-fit line (R^2=0.98) was determined (Microsoft Excel 2003, Microsoft Corporation, Redmond, Wash.) to calculate the apparent KM and Ki for the appropriate reaction.^17

N[C@H](CC(=O)O)c1ccccc1 [(R)-β-phenylalanine, (R)-3-amino-3-phenylpropionic acid]
substrate of the racemase [1]: nor was (R)-β-amino acid a substrate of the racemase
effect on racemase reaction rate / activity ([1]; β-arylalanine added to racemization of (S)-α-arylalanine): not affect the reaction rate

N[C@@H](Cc1c[nH]c2ccccc12)C(=O)O [tryptophan]
Vrel [2]: 0.004

Cc1ncc(COP(=O)(O)O)c(C=O)c1O [PLP, pyridoxal-5′-phosphate, reference compound]
change in racemase reaction rate with or without supplementation ([1]; 1.5 mM α-arylalanines, exogenous PLP 50 μM): No change in the reaction rate

NC(Cc1cccs1)C(=O)O (racemic) [2′-thienyl-α-arylalanine, (R,S)-3-(2′-thienyl)alanine]
increase in conversion to (R)-β-arylalanine under DKR conditions compared to PAM alone [3]: 12%

N[C@@H](Cc1ccco1)C(=O)O [(S)-2-furanyl-α-alanine, (S)-2-amino-3-(2′-furanyl)propionic acid]
β-product to α-substrate ratio [4]: 0.41

N[C@@H](Cc1cccs1)C(=O)O [(S)-2-thienyl-α-alanine, (S)-3-(2′-thienyl)alanine]
β-product to α-substrate ratio [4]: 0.71

NC(Cc1ccc(F)cc1)C(=O)O (racemic) [4′-fluoro-α-arylalanine, 2-amino-3-(4′-fluorophenyl)propionic acid]
increase in conversion to (R)-β-arylalanine under DKR conditions compared to PAM alone [3]: 16%

(S)-α-phenylalanine
Keq (previous study) [5]: 1.1
Vmax ([6]; forward reaction, with (R)-α-phenylalanine, no evident change relative to no inhibitor): 0.1 µmol/min/mg
Km ([6]; read-out: KM of PAM, in the absence of (R)-α-phenylalanine): 700 µM
Km ([6]; read-out: apparent Michaelis constant (KM apparent), forward reaction, in the presence of (R)-α-phenylalanine): 1100 µM

N[C@H](Cc1ccccc1)C(=O)O [(R)-α-Phenylalanine, (R)-α-phenylalanine]
inhibition of the PAM reaction (forward) ([6]; 0.2 mM and 0.75 mM (R)-α-phenylalanine): did not significantly inhibit
inhibition of the reverse PAM reaction ([6]; (R)-β-phenylalanine as substrate): not inhibited

N[C@@H](Cc1ccccc1)C(=O)O (racemic) [phenylalanine]
increase in conversion to (R)-β-arylalanine under DKR conditions compared to PAM alone [3]: 19%
Vrel [2]: 0.18
Keq ([4]; racemic substrate 0.4 mM, 20 h): 1.8

Cc1ccc(CC(N)C(=O)O)cc1 (racemic) [4′-methyl-α-arylalanine, (R,S)-2-amino-3-(4′-methylphenyl)propionic acid]
increase in conversion to (R)-β-arylalanine under DKR conditions compared to PAM alone [3]: 12%

NC(Cc1cccc(F)c1)C(=O)O (racemic) [3′-fluoro-α-arylalanine, 2-amino-3-(3′-fluorophenyl)propionic acid]
increase in conversion to (R)-β-arylalanine under DKR conditions compared to PAM alone [3]: 14%

N[C@@H](Cc1c[nH]cn1)C(=O)O [histidine]
Vrel [2]: 1
